Target: NHR-86 (Caenorhabditis elegans, UniProt Q965W2)
Experiment: intrinsic tryptophan fluorescence quenching of purified LBD
Format: binding

Chain of NHR-86 (Q965W2 130-405): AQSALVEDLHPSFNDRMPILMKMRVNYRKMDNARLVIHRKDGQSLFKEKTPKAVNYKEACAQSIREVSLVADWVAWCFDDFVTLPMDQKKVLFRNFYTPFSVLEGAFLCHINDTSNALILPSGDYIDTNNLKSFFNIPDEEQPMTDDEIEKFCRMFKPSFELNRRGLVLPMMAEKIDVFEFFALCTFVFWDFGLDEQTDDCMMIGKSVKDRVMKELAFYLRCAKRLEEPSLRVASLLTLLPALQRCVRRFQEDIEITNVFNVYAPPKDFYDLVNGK

NC(=O)c1cccc2nc3ccccc3nc12 [PCN, phenazine-1-carboxamide]
Kd: 24.2 µM

— paper PMC10101930 (Immunity, 2023)
